Experimental data reported in paper PMC12111632, “Expression, purification and preliminary pharmacological characterization of the Plasmodium falciparum membrane-bound pyrophosphatase type 1” (PLOS One, 2025).
pIC50: −log10 of the molar value. Where a name gives a salt, the structure may show the parent alone. Read-outs that look alike come from different tables or passages of the source.

Assays:
[1] = biological target: T1, TmPPase (Thermotoga maritima, UniProt Q9S5X0); set-up: made in house; host or cells: S. cerevisiae; conditions: cited from earlier work
T1 sequence (Q9S5X0 1-726): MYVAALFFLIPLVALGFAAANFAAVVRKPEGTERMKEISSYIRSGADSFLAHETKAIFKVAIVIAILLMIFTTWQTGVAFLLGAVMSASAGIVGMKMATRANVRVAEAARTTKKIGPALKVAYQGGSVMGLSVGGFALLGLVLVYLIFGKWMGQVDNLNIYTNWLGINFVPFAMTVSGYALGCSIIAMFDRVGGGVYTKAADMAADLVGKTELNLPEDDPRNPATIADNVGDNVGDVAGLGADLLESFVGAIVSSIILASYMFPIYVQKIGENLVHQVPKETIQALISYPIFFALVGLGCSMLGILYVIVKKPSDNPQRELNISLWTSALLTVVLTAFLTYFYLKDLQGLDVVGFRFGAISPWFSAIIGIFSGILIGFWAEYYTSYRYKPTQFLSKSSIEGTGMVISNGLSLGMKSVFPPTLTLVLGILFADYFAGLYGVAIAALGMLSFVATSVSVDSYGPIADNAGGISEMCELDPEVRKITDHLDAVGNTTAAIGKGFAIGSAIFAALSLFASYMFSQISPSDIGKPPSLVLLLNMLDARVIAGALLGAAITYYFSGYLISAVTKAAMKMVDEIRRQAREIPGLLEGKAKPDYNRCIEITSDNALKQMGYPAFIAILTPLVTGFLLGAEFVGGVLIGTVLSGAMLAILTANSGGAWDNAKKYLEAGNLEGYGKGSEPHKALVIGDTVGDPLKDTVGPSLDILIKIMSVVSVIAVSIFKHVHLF

[2] = biological target: T1, TmPPase; test: TmPPase inhibition assay (96-well molybdenum blue colorimetric phosphate assay); type: biochemical; set-up: made in house
[3] = biological target: PfPPase-VP1 (Plasmodium falciparum, UniProt Q8IKR1); test: biochemical
Sequence of PfPPase-VP1 (Q8IKR1 entry or part of it): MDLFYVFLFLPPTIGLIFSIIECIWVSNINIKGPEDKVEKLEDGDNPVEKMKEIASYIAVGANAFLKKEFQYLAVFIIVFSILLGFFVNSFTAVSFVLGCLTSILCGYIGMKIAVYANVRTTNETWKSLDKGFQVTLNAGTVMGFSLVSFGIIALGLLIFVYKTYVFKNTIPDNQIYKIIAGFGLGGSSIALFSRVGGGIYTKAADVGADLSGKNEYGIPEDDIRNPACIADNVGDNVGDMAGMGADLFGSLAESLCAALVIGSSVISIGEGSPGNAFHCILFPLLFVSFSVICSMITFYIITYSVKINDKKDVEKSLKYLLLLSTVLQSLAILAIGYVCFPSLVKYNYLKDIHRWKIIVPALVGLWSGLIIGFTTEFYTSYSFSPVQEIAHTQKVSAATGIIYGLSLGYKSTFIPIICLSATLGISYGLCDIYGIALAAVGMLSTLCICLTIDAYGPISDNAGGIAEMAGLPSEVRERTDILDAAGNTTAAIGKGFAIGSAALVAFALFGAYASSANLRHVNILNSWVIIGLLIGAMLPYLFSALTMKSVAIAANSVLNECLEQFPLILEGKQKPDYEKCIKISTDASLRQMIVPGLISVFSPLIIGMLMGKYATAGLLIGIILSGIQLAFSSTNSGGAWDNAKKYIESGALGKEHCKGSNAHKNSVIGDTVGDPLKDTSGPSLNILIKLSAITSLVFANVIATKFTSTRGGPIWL
Experimental: The activity of PfPPase-VP1 was determined using a molybdenum blue colorimetric activity assay in 96-well plate format to measure the amount of phosphate production, as previously described for TmPPase but with modifications to pH (5.2–10) and temperature conditions (20–70°C) as described below. To determine the optimal pH for PfPPase-VP1 activity, 5 μL of 2.5 mg/mL total membrane protein was added to the reaction mixture (60 mM of various buffers (below) with pHs ranging from 5.2–10.0, 3 mM MgCl2, 100 mM KCl, and 10 mM NaCl, 100 mM NaF, 5 μM Gramicidin D), to a final volume of 40 μL. Buffers were trisodium-citrate (pH 5.2), MES (pH 6.5), Tris-HCl (pH 6.8, 7.5, 8.0, and 8.8) and glycine-NaOH (pH 10.0). A control sample was prepared by heating the membrane faction at 90 °C for 5 min to inactivate the enzyme. The reaction mixture was incubated at 30 °C for 5 min in a 96-well heating block. After incubation, 10 µl of 2 mM sodium pyrophosphate (PPi) was added, mixed, and incubated for 10 min. The reaction was stopped by adding 60 μL of premixed solution A (0.3 g ascorbic acid in 10 mL of 0.5 M cold HCl) and solution B (70 mg of ammonium heptamolybdate tetrahydrate in 1 mL of cold milli-Q water) and incubating on ice for 1 h. Finally, 90 μL sodium arsenite solution (5 g sodium arsenite, 5 g trisodium citrate dihydrate and 5 mL of iced-acetic acid in 250 mL milli-Q water) was added and incubated at RT for 30 min. Absorbance was measured at 860 nm on a MultiSkan Go UV/Vis spectrophotometer (Thermo Scientific). The specific activity of PfPPase-VP1 in the membrane was calculated using our previously published formula [23]. 60 mM Tris-Cl (pH 7.5) buffer was then selected for optimization of the reaction temperature (RT, 30 °C, 40 °C, 50 °C, 60 °C and 70 °C) by repeating the assay as described above. […] For the activity assay of purified PfPPase-VP1, 0.15 μg of the enzyme in the optimized detergent solution was mixed with 0.8 μL of 20 mg/mL liposomes (soybean lecithin) and then reaction buffer (60 mM Tris-HCl (pH 7.5), 3 mM MgCl2, 100 mM KCl, and 10 mM NaCl) was added to a total volume of 40 μL. The reaction mixture was preheated at 50 °C for 5 min before adding 10 µl of 2mM PPi and mixing. The catalytic reaction was run for 45 min at 50 °C, and the phosphate production was determined as described above. IDP, a known mPPase competitive inhibitor [35], was used as a positive control to validate the assay for inhibitor screening.
The 35 compounds used in this study were pre-dissolved in dimethyl sulfoxide (DMSO) at concentrations of 25–50 mM.
IDP was used in parallel as a positive control. Each concentration of the test compounds was tested in triplicate.

[4] = purified PfPPase-VP1 reconstituted in liposomes, Tris-HCl pH 7.5, 50 °C, 45 min, triplicate, interval given
[5] = interval given, read-out: IC50 (TmPPase)

Compound: C=Cc1cc2nc(C(=O)Oc3ccccc3Br)cc(-c3cc(C)cc(C)c3)n2n1 [Compound 20]
- pIC50 ([1]; read-out: IC50 against TmPPase): > 4.70

Compound: N=C(N)c1ccc(-c2ccc(-c3ccc(C(=N)N)cc3)o2)cc1 [Compound 2, Furamidine dihydrochloride]
- IC50 (TmPPase, μM) [2]: Inactive
- pIC50 [3]: 3.72

Compound: N=C(N)c1ccc(OCCCCCOc2ccc(C(=N)N)cc2)cc1 [Compound 3, Pentamidine isethionate]
- IC50 (TmPPase, μM) [2]: Inactive

Compound: [H]/N=C(\N/C(=N/[H])Nc1ccc(Cl)cc1)NC(C)C [Compound 6, Proguanil hydrochloride]
- IC50 (TmPPase, μM) [2]: Inactive
- IC50 (PfPPase, μM) [3, 4]: Inactive

Compound: C[C@@H]1CC[C@H]2[C@@H](C)C(=O)O[C@@H]3O[C@@]4(C)CC[C@@H]1[C@]32OO4 [Compound 1, Artemisinin]
- IC50 (TmPPase, μM) [2]: Inactive
- IC50 (PfPPase, μM) [3, 4]: Inactive

Compound: C=Cc1cc2nc(C(=O)O)cc(-c3cc(C)cc(C)c3)n2n1 [Compound 19]
- pIC50 ([1]; read-out: IC50 against TmPPase): > 4.70

Compound: CC(C)(C)c1cc(-c2cc(C(=O)Oc3ccccc3Br)no2)cc(C(C)(C)C)c1 [Compound 18]
- pIC50 [1, 5]: 5.00
- IC50 (PfPPase, μM) [3, 4]: Inactive

Compound: CCN(CCO)CCCC(C)Nc1ccnc2cc(Cl)ccc12 (stereo not drawn) [Compound 14, Hydroxychloroquine]
- IC50 (TmPPase, μM) [2]: Inactive
- IC50 (PfPPase, μM) [3, 4]: Inactive

Compound: CCN(CCO)CCCC(C)Nc1ccnc2cc(Cl)ccc12 (stereo not drawn) [Compound 13, Hydroxychloroquine sulfate]
- IC50 (TmPPase, μM) [2]: Inactive
- IC50 (PfPPase, μM) [3, 4]: Inactive

Compound: CCOC(=O)c1cc(-c2ccc(OC)c(S(=O)(=O)N3CCCSc4ccccc43)c2)on1 [Compound 15]
- IC50 (PfPPase, μM) [3, 4]: Inactive

Compound: CCN(CC)CCCC(C)Nc1ccnc2cc(Cl)ccc12 (stereo not drawn) [Compound 11, Chloroquine]
- IC50 (TmPPase, μM) [2]: Inactive
- IC50 (PfPPase, μM) [3, 4]: Inactive

Compound: O=CN(O)CCCP(=O)(O)O [Compound 9, Fosmidomycin]
- IC50 (TmPPase, μM) [2]: Inactive
- IC50 (PfPPase, μM) [3, 4]: Inactive

Compound: COc1cc(C2c3c(-c4cc(Cl)c(C)cc4O)n[nH]c3C(=O)N2Cc2ccccc2)ccc1O (stereo not drawn) [Compound 16]
- pIC50 [1, 5]: 4.48
- IC50 (PfPPase, μM) [3, 4]: Inactive

Compound: CCN(CC)CCCC(C)Nc1ccnc2cc(Cl)ccc12 (stereo not drawn) [Compound 12, Chloroquine diphospate salt]
- IC50 (TmPPase, μM) [2]: Inactive
- IC50 (PfPPase, μM) [3, 4]: Inactive

Compound: O=P(O)(O)NP(=O)(O)O [IDP, imidodiphosphate]
- pIC50 ([3]; purified PfPPase-VP1 reconstituted in liposomes, Tris-HCl pH 7.5, 50 °C, 45 min, triplicate, interval given, read-out: IC50 (PfPPase)): 3.76

Compound: CC1(C)N=C(N)N=C(N)N1c1ccc(Cl)cc1 [Compound 4, Cycloguanil hydrochloride]
- IC50 (TmPPase, μM) [2]: Inactive
- IC50 (PfPPase, μM) [3, 4]: Inactive

Compound: CC(=O)N(O)CCCP(=O)(O)O [Compound 10, FR900098 (sodium salt)]
- IC50 (TmPPase, μM) [2]: Inactive
- IC50 (PfPPase, μM) [3, 4]: Inactive

Compound: OC(c1cc(C(F)(F)F)nc2c(C(F)(F)F)cccc12)C1CCCCN1 (stereo not drawn) [Compound 5, Mefloquine hydrochloride]
- IC50 (TmPPase, μM) [2]: Inactive

Compound: O=C1C(O)=C([C@H]2CC[C@H](c3ccc(Cl)cc3)CC2)C(=O)c2ccccc21 [Compound 8, Atovaquone]
- IC50 (TmPPase, μM) [2]: Inactive
- IC50 (PfPPase, μM) [3, 4]: Inactive

Compound: Cc1cc(C)cc(-c2cc(C(=O)Oc3ccccc3Br)no2)c1 [Compound 17]
- pIC50 [1, 5]: 5.17
- IC50 (PfPPase, μM) [3, 4]: Inactive

Compound: C[C@H]1c2cccc(O)c2C(=O)C2=C(O)[C@]3(O)C(=O)C(C(N)=O)=C(O)[C@@H](N(C)C)[C@@H]3[C@@H](O)[C@@H]21 [Compound 7, Doxycyline monohydrate]
- IC50 (TmPPase, μM) [2]: Inactive
- IC50 (PfPPase, μM) [3, 4]: Inactive
